Laboratory results taken from ChEMBL document CHEMBL1201862, “PubChem BioAssay data set” (2004).
Active and inactive are the calls of the source.

What was measured:
[1] = target: T1, Replicative DNA helicase DnaB (Mycobacterium tuberculosis, UniProt P9WMR3); test: DnaB intein splicing inhibitors, dose response, biochemical, cell-free fluorescence (AID 449749); type: functional
T1 sequence (P9WMR3 whole entry): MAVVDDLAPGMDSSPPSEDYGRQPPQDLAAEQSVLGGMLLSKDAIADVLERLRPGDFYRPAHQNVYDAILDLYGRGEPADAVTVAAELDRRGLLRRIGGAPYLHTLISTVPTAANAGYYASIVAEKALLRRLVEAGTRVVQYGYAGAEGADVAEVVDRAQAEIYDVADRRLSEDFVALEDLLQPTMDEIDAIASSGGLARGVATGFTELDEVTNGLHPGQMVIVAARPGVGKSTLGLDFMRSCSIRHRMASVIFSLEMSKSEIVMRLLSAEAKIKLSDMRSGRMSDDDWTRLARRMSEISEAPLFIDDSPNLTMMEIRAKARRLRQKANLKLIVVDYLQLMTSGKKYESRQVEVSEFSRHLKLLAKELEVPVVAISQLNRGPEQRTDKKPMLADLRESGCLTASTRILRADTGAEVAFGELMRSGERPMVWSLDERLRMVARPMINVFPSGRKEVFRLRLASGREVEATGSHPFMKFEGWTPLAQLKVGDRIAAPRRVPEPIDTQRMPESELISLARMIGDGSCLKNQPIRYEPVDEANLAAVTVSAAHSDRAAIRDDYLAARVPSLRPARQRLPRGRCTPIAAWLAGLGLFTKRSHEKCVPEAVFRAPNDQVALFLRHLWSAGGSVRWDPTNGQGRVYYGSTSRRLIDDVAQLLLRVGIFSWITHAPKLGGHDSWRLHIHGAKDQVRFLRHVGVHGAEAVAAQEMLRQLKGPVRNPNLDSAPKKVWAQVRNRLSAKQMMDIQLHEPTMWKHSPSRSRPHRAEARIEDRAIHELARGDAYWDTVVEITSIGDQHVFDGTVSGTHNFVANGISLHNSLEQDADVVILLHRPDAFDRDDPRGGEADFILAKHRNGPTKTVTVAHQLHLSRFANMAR

Protein RecA = target: T2, Protein RecA (Mycobacterium tuberculosis, UniProt P9WHJ3); test: Fluorescence Cell-Free Homogeneous Dose Retest to Identify Inhibitors of RecA-Intein Splicing Activity. [Related pubchem assays (depositor defined):AID2097, AID2223, AID489010, AID492950]; type: functional
T2 sequence (P9WHJ3 whole entry): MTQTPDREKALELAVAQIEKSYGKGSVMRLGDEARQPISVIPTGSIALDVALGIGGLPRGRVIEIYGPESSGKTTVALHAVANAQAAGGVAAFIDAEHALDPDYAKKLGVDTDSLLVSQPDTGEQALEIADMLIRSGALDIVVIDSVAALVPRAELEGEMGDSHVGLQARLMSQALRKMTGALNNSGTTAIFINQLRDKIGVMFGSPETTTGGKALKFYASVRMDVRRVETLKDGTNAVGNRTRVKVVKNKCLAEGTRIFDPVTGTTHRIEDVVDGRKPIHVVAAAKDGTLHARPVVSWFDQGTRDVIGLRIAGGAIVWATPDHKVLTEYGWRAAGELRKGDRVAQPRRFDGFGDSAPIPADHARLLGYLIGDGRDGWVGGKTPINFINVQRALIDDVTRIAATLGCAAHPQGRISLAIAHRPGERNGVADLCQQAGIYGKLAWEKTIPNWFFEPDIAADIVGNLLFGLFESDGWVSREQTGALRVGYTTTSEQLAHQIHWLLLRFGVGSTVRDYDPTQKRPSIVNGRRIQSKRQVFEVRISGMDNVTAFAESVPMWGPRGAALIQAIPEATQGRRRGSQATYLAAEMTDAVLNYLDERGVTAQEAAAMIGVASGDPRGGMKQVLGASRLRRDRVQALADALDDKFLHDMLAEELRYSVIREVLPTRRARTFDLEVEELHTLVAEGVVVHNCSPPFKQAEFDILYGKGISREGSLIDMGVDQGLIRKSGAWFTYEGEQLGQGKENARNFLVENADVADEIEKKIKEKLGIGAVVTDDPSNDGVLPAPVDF

[2] = target: SWI/SNF-related matrix-associated actin-dependent regulator of chromatin subfamily A member 2 (Homo sapiens, UniProt P51531); test: Luminescence-based cell-based high throughput dose response assay to identify activators of the function of SWI/SNF related, matrix associated, actin dependent regulator of chromatin, subfamily a, member 2 (SMARCA2, BRM).; type: functional
[3] = Counterscreen for activators of the function of SWI/SNF related, matrix associated, actin dependent regulator of chromatin, subfamily a, member 2 (SMARCA2, BRM): Luminescence-based cell-based high throughput dose response assay to identify non-selective compounds using the VP16 reporter assay.; type: functional
[4] = reduced cellular PGC1a acetyl-lysine signal – cell-based, cherry-picked samples, dose response (AID 720514); type: functional;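 further: potency may reflect raised or lowered acetylation signal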
fMet-Leu-Phe receptor = fMet-Leu-Phe receptor (Homo sapiens, UniProt P21462); test: formyl peptide receptor binders – dose response (AID 519); type: functional
[5] = mouse fibroblast viability loss – cell-based, cherry-pick samples, set 2, cytotoxicity control for T. cruzi growth inhibitor project, dose response (AID 651817); type: functional; conditions: NIH3T3
A549 = test: viability loss in A549 cells – cell-based, plate reader, cherry-pick samples, cytotoxicity control, dose response (AID 687028); type: functional; conditions: Homo sapiens
[6] = HeLa cell viability loss – plate reader, dry powder, cytotoxicity control, dose response (AID 651946); type: functional, cell-based
Fatty acid synthase = Fatty acid synthase (Homo sapiens, UniProt P49327); test: inhibition of human FAS-TE enzyme activity – biochemical, endpoint fluorescence intensity, powder samples, SAR follow-up (AID 652164); type: functional
[7] = target: Kappa-type opioid receptor (Homo sapiens, UniProt P41145); test: kappa opioid receptor antagonism potency – cell-based, fluorescence, dose response, late-stage follow-up (AID 652032); type: functional
[8] = CTGF mRNA reduction in DLD1 cells – cell-based, DLD1 colon cancer, RT-qPCR, cherry-pick, dose response (AID 1053122); type: functional; conditions: Cancer cell lines

Sequence of SWI/SNF-related matrix-associated actin-dependent regulator of chromatin subfamily A member 2 (P51531 whole entry): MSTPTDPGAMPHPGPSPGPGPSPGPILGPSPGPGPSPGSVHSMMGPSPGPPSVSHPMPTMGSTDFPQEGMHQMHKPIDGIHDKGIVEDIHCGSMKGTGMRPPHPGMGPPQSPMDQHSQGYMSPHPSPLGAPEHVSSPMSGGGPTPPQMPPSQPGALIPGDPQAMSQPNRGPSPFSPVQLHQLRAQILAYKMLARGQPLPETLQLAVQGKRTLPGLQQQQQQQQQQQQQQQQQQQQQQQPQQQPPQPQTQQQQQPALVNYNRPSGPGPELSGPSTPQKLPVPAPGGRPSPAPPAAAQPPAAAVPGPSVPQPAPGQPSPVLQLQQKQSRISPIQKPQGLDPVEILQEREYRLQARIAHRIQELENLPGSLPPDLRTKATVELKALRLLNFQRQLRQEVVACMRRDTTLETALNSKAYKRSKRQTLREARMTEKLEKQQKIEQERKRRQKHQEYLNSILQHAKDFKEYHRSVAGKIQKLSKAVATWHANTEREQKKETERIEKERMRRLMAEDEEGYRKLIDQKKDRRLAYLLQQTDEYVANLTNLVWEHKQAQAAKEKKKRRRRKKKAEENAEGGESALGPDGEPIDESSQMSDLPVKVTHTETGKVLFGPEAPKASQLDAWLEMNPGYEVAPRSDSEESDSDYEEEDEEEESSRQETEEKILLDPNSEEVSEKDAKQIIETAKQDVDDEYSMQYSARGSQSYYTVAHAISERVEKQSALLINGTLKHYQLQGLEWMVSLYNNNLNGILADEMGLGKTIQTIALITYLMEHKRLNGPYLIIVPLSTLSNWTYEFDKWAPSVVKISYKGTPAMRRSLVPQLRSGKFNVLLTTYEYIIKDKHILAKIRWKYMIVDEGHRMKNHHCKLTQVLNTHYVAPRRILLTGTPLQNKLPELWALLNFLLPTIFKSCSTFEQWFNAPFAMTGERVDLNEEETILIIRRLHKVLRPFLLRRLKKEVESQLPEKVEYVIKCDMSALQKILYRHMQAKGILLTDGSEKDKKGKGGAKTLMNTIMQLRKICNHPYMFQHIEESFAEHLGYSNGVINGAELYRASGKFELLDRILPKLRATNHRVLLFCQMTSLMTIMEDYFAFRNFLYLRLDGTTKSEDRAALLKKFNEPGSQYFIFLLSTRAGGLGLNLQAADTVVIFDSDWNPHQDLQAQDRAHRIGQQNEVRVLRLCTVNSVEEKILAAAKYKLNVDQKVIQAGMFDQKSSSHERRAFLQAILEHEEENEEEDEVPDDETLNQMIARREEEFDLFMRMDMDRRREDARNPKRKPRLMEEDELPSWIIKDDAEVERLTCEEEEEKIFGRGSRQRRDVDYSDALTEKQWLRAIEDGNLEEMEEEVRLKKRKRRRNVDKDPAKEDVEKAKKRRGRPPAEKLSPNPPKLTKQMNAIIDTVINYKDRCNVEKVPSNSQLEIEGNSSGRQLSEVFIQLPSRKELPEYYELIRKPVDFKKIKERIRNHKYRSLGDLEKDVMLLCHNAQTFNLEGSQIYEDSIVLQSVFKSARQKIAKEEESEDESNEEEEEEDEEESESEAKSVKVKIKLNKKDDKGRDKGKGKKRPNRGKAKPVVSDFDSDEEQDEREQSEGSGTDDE
Sequence of fMet-Leu-Phe receptor (P21462 whole entry): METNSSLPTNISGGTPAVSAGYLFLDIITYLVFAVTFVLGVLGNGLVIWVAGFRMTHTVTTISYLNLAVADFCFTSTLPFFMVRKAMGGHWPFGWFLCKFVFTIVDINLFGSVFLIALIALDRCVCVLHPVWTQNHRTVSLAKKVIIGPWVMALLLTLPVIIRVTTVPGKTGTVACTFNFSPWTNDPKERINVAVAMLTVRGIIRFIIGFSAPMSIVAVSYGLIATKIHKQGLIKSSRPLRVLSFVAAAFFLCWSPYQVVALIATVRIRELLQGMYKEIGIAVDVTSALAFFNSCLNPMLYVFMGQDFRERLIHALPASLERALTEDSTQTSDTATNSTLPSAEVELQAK
Sequence of Fatty acid synthase (P49327 whole entry): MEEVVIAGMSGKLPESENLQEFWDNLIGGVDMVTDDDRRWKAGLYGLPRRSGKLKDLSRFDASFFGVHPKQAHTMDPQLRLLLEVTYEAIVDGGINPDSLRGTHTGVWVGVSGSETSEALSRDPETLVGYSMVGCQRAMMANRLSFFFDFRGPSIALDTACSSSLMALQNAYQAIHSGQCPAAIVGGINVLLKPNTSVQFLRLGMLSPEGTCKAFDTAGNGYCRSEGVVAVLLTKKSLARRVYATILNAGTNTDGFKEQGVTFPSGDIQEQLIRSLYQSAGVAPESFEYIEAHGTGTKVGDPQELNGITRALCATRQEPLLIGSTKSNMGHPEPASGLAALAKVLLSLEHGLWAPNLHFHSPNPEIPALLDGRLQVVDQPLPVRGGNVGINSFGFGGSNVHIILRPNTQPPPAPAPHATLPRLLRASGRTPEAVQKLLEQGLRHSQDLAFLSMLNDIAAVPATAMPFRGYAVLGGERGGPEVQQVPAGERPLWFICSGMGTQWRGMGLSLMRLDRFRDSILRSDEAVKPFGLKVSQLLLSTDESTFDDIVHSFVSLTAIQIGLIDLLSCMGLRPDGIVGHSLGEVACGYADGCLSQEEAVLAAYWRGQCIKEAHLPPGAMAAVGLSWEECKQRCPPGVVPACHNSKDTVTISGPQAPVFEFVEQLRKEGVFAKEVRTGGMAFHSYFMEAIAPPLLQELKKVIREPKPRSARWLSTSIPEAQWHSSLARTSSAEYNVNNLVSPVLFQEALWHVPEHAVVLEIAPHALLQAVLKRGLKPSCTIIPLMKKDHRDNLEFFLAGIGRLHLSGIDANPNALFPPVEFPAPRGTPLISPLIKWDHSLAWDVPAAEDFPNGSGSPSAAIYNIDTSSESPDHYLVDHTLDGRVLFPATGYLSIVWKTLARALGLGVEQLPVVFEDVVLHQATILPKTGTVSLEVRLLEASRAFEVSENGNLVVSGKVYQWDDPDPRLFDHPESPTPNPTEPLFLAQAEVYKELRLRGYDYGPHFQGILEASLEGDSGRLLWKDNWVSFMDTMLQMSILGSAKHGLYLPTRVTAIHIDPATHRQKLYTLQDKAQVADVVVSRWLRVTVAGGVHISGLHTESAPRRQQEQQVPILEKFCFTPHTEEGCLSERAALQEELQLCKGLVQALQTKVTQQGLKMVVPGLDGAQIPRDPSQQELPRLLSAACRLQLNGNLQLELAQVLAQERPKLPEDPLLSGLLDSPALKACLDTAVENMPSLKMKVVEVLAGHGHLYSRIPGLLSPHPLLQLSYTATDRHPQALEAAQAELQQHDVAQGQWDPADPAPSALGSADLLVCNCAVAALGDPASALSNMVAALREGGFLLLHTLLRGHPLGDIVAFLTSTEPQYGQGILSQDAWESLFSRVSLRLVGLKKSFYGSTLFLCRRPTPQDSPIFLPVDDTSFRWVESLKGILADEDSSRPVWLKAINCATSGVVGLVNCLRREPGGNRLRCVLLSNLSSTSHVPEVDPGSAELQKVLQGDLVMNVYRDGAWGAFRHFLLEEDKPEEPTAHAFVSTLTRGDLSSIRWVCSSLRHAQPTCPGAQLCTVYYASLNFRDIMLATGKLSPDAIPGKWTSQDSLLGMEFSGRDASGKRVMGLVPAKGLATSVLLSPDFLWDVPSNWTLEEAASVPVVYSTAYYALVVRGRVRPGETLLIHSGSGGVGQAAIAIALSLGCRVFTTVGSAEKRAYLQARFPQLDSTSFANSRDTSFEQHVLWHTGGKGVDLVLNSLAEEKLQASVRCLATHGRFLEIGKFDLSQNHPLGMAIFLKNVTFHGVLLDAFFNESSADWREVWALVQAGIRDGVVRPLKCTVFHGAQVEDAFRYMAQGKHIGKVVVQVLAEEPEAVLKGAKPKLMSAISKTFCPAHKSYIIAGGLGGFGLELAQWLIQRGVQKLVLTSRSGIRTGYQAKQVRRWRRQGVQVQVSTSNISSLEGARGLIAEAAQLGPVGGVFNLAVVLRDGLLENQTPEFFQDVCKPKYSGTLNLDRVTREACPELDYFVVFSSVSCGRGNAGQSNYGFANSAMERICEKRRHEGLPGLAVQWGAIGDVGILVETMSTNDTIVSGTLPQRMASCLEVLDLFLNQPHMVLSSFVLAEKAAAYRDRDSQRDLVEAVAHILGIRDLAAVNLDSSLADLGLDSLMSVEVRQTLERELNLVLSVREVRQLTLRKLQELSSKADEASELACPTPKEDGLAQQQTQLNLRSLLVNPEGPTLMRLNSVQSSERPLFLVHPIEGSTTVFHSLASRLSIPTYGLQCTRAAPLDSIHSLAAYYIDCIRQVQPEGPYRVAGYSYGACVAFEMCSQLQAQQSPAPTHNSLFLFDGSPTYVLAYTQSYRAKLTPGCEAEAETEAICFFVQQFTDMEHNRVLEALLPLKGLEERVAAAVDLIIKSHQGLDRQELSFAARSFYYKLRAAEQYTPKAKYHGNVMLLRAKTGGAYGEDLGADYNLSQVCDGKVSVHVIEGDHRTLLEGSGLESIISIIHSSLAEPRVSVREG
Sequence of Kappa-type opioid receptor (P41145 whole entry): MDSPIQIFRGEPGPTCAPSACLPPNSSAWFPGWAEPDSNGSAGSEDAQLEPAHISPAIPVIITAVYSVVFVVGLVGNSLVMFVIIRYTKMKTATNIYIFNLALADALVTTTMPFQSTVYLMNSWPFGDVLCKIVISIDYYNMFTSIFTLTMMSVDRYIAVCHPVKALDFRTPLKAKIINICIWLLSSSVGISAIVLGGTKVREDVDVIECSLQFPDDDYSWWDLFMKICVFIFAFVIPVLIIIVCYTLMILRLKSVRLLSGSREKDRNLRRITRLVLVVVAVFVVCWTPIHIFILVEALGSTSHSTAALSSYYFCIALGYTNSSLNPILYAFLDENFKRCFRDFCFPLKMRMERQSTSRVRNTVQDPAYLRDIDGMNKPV

What does the source list for Cc1cc(C)cc(OC(=O)C[S+]([O-])c2ccc(C(F)(F)F)cc2[N+](=O)[O-])c1 (configuration not stated)?
AC50 [1]: 4.03 µM (active); EC50 (Protein RecA): 1.3 µM (active); EC50 [2]: > 91.2 µM (inactive); EC50 [3]: > 91.2 µM (inactive); AC50 [4]: 10.3 µM (active)

Which Ki (fMet-Leu-Phe receptor) does the source give for CCCc1nc2ccccc2c2nc(N)nn12 here?
The Ki was > 66.7 µM (inactive).

Which AC50 [5] does the source give for C[C@@H]1CN([C@H](C)CO)C(=O)Cc2cc(NS(=O)(=O)c3ccc(Cl)cc3)ccc2O[C@H]1CN(C)S(=O)(=O)c1ccc(Cl)cc1 here?
The AC50 was 16.9 µM (active).

For C[C@@H]1CCCCO[C@@H](CN(C)C(=O)Cc2ccccc2)[C@H](C)CN([C@H](C)CO)C(=O)c2cc(NS(=O)(=O)c3ccc(Cl)cc3)ccc2O1, which AC50 (A549) is on record?
Its AC50 is 31.2 µM (active).

With [O-][S+](Cc1cn(-c2ccccc2)nn1)c1nnc(-c2ccc(Cl)cc2)o1 (configuration not stated) as the compound, how does the AC50 [6] read?
Its AC50 is 15.6 µM (active).

For CC(=O)Nc1nc(-c2ccc(S(=O)(=O)N3CCOCC3)cc2)cs1, which IC50 (Fatty acid synthase) is on record?
Its IC50 is 11.4 µM (active).

With COC(=O)c1cc(Br)cnc1N1CCCC(NC2CCCCC2)C1 (configuration not stated) as the compound, how does the IC50 [7] read?
The IC50 was 11.7 µM (inactive).

Which AC50 [8] does the source give for C[C@@H]1C/C=C/C[C@@H](c2cccc(Cl)c2)NC(=O)[C@H](Cc2ccccc2)N(C)C(=O)c2ccccc2O1.C[C@@H]1C/C=C\C[C@@H](c2cccc(Cl)c2)NC(=O)[C@H](Cc2ccccc2)N(C)C(=O)c2ccccc2O1 here?
Its AC50 is 0.492 µM (active).
